# Reference: patent US7687083B2, “Pharmaceutical compositions comprising old man's beard (Usnea barbata) and St. John's wort (Hypericum perforatum) and their use” (Universitatsklinikum Freiburg, priority 2004, dated 2010)
# Experiments:
# Pityrosporon ovale = experiment: oil submersion test on Sabouraud agar with scales of patients with seborrhoeal eczema; type: cell-based; details: 1% in olive oil; incubation for 4 days
# Description: In addition, the efficacy against pityrosporon of 1% Usnea extract in olive oil in comparison with 1% amphotericin was investigated. For this purpose, scales of patients with seborrhoeal eczema were applied to Sabouraud agar and covered with a layer of the oil. After incubation for 4 days in an incubator, the number of colony-forming units was counted.
# UV erythema test = type: in vivo, healthy test persons; details: 1.5 times MED UVB, applied in Finn chambers for 24 hours; FIG. 5
# Description: The minimal erythema dose for UVB was determined in the case of seven healthy test persons. Thereafter, test fields on the back were exposed to 1.5 times the minimal erythema dose (MED). The test substances were applied in Finn chambers for 24 hours. The UV-induced erythema was determined photometrically before exposure and after action of the substances.
# Propionibacterium acnes = experiment: agar dilution test (MIC/MBC); type: cell-based; details: Cutibacterium acnes
# Description: The old man's beard CO2 extract (Usnea barbata L.) was tested in the concentrations 1:10, 1:50, 1:100, 1:500 and 1:1000 in the agar dilution test for a number of aerobic and anaerobic bacteria. The pure substance usnic acid was tested in concentrations of 128/64/32/16/8/4/2/1/0.5/0.25 and 0.125 μg/ml. The MIC (minimum inhibitory concentration) is defined as >90% inhibition of bacterial growth after 24 h. The MBC (minimum bactericidal concentration) is defined as >90% inhibition of the growth at 48 h.
structure (smiles),measurement,setting,value
"C[C@@H]1[C@H](O)[C@@H](C)/C=C/C=C/C=C/C=C/C=C/C=C/C=C/[C@H](O[C@@H]2O[C@H](C)[C@@H](O)[C@H](N)[C@@H]2O)C[C@@H]2O[C@](O)(C[C@@H](O)C[C@@H](O)[C@H](O)CC[C@@H](O)C[C@@H](O)CC(=O)O[C@H]1C)C[C@H](O)[C@H]2C(=O)O [1% Amphotericin in olive oil, amphotericin]",growth of the pityrosporon yeast fungi,Pityrosporon ovale,inhibited completely
same,number of colony-forming units,Pityrosporon ovale,1 CFU
CCOC(=O)O[C@]1(C(=O)COC(=O)CC)CC[C@H]2[C@@H]3CCC4=CC(=O)C=C[C@]4(C)[C@H]3[C@@H](O)C[C@@]21C [Prednicarbate],"UV-induced inflammation (erythema, photometric)",UV erythema test,inhibit the UV-induced inflammation
"CC(=O)c1c(O)c(C)c(O)c2c1OC1=CC(=O)C(C(C)=O)C(=O)C12C (centres unmarked) [Usnic acid, usnic acid]",MIC,Propionibacterium acnes; >90% inhibition of bacterial growth after 24 h,1 µg/mL
same,MBC,Propionibacterium acnes; >90% inhibition of the growth at 48 h,4 µg/mL
